Measured values reported in patent US20050112573A1, “Method of detecting toxic substance” (priority 2001, published 2005).

System: yeast genes (level of expressed mRNA)
Test: DNA chip analysis of expressed mRNA of yeast genes after 2 h culture with a toxic chemical substance
Format: cell-based, Saccharomyces cerevisiae S288C
In short: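 Values are treated-to-control fluorescence ratios from a whole-yeast-genome DNA chip (65° C, over 12 h hybridization) using Cy3/Cy5-labelled cDNA from mRNA. Log-phase S288C cells in YPD at 25° C were exposed 2 h to a toxicant at sublethal, growth-inhibiting concentration.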

Substance: Na2As [(1)]
- The level of expressed mRNA in the presence of chemical substance/ (yeast gene YKL086W, ratio to control without chemical): 1.0
- The level of expressed mRNA in the presence of chemical substance/The level of expressed mRNA in the absence of chemical substance (yeast gene YKL096W): 1.4
- The level of expressed mRNA in the presence of chemical substance/The level of expressed mRNA in the absence of chemical substance (yeast gene YKL139W): 0.9
- The level of expressed mRNA in the presence of chemical substance/ (yeast gene YKL151C, ratio to control without chemical substance, 2 h culture): 1.2
- The level of expressed mRNA in the presence of chemical substance/ (yeast gene YKL153W, ratio to control without chemical substance, 2 h culture): 1.1
- The level of expressed mRNA in the presence of chemical substance/The level of expressed mRNA in the absence of chemical substance (yeast gene YKL165C): 0.5
- The level of expressed mRNA in the presence of chemical substance/The level of expressed mRNA in the absence of chemical substance (yeast gene YKL193C): 1.3
- The level of expressed mRNA in the presence of chemical substance/ (yeast gene YKL195W, ratio to control without chemical substance, 2 h culture): 0.8
- The level of expressed mRNA in the presence of chemical substance/in the absence of chemical substance (yeast gene YKR009C): 1.0
- The level of expressed mRNA in the presence of chemical substance/The level of expressed mRNA in the absence of chemical substance (yeast gene YKR014C): 1.1
- The level of expressed mRNA in the presence of chemical substance/ (yeast gene YKR091W, ratio to control without chemical): 1.5
- The level of expressed mRNA in the presence of chemical substance/ (yeast gene YLR054C, ratio to control without chemical substance, 2 h culture): 2.0
- The level of expressed mRNA in the presence of chemical substance/The level of expressed mRNA in the absence of chemical substance (yeast gene YLR120C): 1.2
- The level of expressed mRNA in the presence of chemical substance/The level of expressed mRNA in the absence of chemical substance (yeast gene YLR136C): 1.3
- The level of expressed mRNA in the presence of chemical substance/ (yeast gene YLR149C, ratio to control without chemical substance, 2 h culture): 1.4
- The level of expressed mRNA in the presence of chemical substance/ (yeast gene YLR152C, ratio to control without chemical substance, 2 h culture): 0.7
- The level of expressed mRNA in the presence of chemical substance/The level of expressed mRNA in the absence of chemical substance (yeast gene YLR178C): 1.7
- The level of expressed mRNA in the presence of chemical substance/ (yeast gene YLR194C, ratio to control without chemical): 2.1
- The level of expressed mRNA in the presence of chemical substance/The level of expressed mRNA in the absence of chemical substance (yeast gene YLR250W): 1.5
- The level of expressed mRNA in the presence of chemical substance/ (yeast gene YLR324W, ratio to control without chemical substance, 2 h culture): 0.7
- The level of expressed mRNA in the presence of chemical substance/The level of expressed mRNA in the absence of chemical substance (yeast gene YLR327C): 5.5
- The level of expressed mRNA in the presence of chemical substance/ (yeast gene YLR350W, ratio to control without chemical substance, 2 h culture): 1.2
- The level of expressed mRNA in the presence of chemical substance/in the absence of chemical substance (yeast gene YLR351C): 1.0
- The level of expressed mRNA in the presence of chemical substance/The level of expressed mRNA in the absence of chemical substance (yeast gene YLR356W): 1.0
- The level of expressed mRNA in the presence of chemical substance/The level of expressed mRNA in the absence of chemical substance (yeast gene YLR362W): 1.1
- The level of expressed mRNA in the presence of chemical substance/in the absence of chemical substance (yeast gene YLR375W): 0.9
- The level of expressed mRNA in the presence of chemical substance/ (yeast gene YLR387C, ratio to control without chemical substance, 2 h culture): 0.9
- The level of expressed mRNA in the presence of chemical substance/The level of expressed mRNA in the absence of chemical substance (yeast gene YLR429W): 0.7
- The level of expressed mRNA in the presence of chemical substance/ (yeast gene YLR460C, ratio to control without chemical substance, 2 h culture): 2.1
- The level of expressed mRNA in the presence of chemical substance/ (yeast gene YML117W, ratio to control without chemical substance, 2 h culture): 0.9
- The level of expressed mRNA in the presence of chemical substance/The level of expressed mRNA in the absence of chemical substance (yeast gene YMR004W): 0.9
- The level of expressed mRNA in the presence of chemical substance/ (yeast gene YMR009W, ratio to control without chemical substance, 2 h culture): 2.3
- The level of expressed mRNA in the presence of chemical substance/ (yeast gene YMR067C, ratio to control without chemical substance, 2 h culture): 0.9
- The level of expressed mRNA in the presence of chemical substance/ (yeast gene YMR090W, ratio to control without chemical substance, 2 h culture): 6.9
- The level of expressed mRNA in the presence of chemical substance/The level of expressed mRNA in the absence of chemical substance (yeast gene YMR094W): 1.0
- The level of expressed mRNA in the presence of chemical substance/ (yeast gene YMR095C, ratio to control without chemical): 1.1
- The level of expressed mRNA in the presence of chemical substance/ (yeast gene YMR097C, ratio to control without chemical substance, 2 h culture): 1.5
- The level of expressed mRNA in the presence of chemical substance/ (yeast gene YMR102C, ratio to control without chemical substance, 2 h culture): 1.0
- The level of expressed mRNA in the presence of chemical substance/The level of expressed mRNA in the absence of chemical substance (yeast gene YMR104C): 1.9
- The level of expressed mRNA in the presence of chemical substance/ (yeast gene YMR107W, ratio to control without chemical substance, 2 h culture): 5.0
- The level of expressed mRNA in the presence of chemical substance/ (yeast gene YMR180C, ratio to control without chemical substance, 2 h culture): 1.2
- The level of expressed mRNA in the presence of chemical substance/ (yeast gene YMR184W, ratio to control without chemical substance, 2 h culture): 1.3
- The level of expressed mRNA in the presence of chemical substance/ (yeast gene YMR191W, ratio to control without chemical substance, 2 h culture): 1.3
- The level of expressed mRNA in the presence of chemical substance/The level of expressed mRNA in the absence of chemical substance (yeast gene YMR219W): 0.7
- The level of expressed mRNA in the presence of chemical substance/The level of expressed mRNA in the absence of chemical substance (yeast gene YMR226C): 1.1
- The level of expressed mRNA in the presence of chemical substance/in the absence of chemical substance (yeast gene YMR267W): 0.8
- The level of expressed mRNA in the presence of chemical substance/The level of expressed mRNA in the absence of chemical substance (yeast gene YMR275C): 0.7
- The level of expressed mRNA in the presence of chemical substance/The level of expressed mRNA in the absence of chemical substance (yeast gene YMR276W): 0.6
- The level of expressed mRNA in the presence of chemical substance/in the absence of chemical substance (yeast gene YMR278W): 0.7
- The level of expressed mRNA in the presence of chemical substance/in the absence of chemical substance (yeast gene YMR293C): 0.9
- The level of expressed mRNA in the presence of chemical substance/ (yeast gene YMR295C, ratio to control without chemical substance, 2 h culture): 1.7
- The level of expressed mRNA in the presence of chemical substance/ (yeast gene YMR316W, ratio to control without chemical substance, 2 h culture): 3.2
- The level of expressed mRNA in the presence of chemical substance/The level of expressed mRNA in the absence of chemical substance (yeast gene YNL006W): 1.1
- The level of expressed mRNA in the presence of chemical substance/The level of expressed mRNA in the absence of chemical substance (yeast gene YNL007C): 0.7
- The level of expressed mRNA in the presence of chemical substance/ (yeast gene YNL044W, ratio to control without chemical substance, 2 h culture): 1.3
